Measured values: ChEMBL document CHEMBL1143922, “Pharmacophore identification of Raf-1 kinase inhibitors” (Bioorg Med Chem Lett, 2008)

Target: RAF proto-oncogene serine/threonine-protein kinase (Homo sapiens, UniProt P04049)
Test: Inhibition of Raf1 kinase

RAF proto-oncogene serine/threonine-protein kinase, sequence (P04049 whole entry): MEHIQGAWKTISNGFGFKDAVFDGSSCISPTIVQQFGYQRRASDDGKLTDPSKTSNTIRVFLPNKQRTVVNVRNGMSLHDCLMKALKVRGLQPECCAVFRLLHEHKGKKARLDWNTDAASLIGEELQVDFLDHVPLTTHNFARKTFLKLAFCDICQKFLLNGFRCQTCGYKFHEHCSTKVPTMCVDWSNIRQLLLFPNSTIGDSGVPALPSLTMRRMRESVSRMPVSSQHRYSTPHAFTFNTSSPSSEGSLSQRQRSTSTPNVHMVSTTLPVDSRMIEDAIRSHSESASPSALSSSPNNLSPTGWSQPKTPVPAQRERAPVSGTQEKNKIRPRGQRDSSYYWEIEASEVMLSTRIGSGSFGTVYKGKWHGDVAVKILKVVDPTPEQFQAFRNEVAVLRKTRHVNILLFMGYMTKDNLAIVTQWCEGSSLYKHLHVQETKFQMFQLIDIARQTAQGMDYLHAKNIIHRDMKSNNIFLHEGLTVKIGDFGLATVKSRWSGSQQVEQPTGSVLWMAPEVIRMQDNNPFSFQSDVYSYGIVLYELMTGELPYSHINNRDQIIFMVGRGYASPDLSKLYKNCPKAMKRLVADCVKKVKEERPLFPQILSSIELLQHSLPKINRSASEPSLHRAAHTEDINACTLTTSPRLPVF

| SMILES | IC50 [nM] |
| --- | --- |
| Cc1cccc(C)c1/C=C/c1cncc(C#N)c1 | 1000 |
| CNC(=O)Oc1cc(C)c(/C=C/c2cncc(C#N)c2)c(C)c1 | 40 |
| CNC(=O)Oc1cc(C)c(/C=C/c2cncc(C(N)=O)c2)c(C)c1 | 7 |
| CNC(=O)Oc1cc(C)c(/C=C/c2cncc(C(=O)O)c2)c(C)c1 | 6 |
| CC(C)(C)c1cc(NC(=O)Nc2ccc(Oc3ccc(C(=O)O)cc3)cc2)no1 | 6300 |
| COC(=O)c1nc(C(C)(C)C)sc1NC(=O)Nc1ccc(C)cc1 | 25000 |
| Oc1cc(-c2nc(-c3ccccc3)[nH]c2-c2ccncc2)ccc1Cl | 1.4 |
| Cc1cc(-c2cccnc2)cc(C)c1/C=C/c1cncc(-c2nn[nH]n2)c1 | 630 |
| Cc1cc(-c2ccccn2)cc(C)c1/C=C/c1cncc(-c2nn[nH]n2)c1 | 100 |
| NC(=O)c1cc(Oc2ccc(NC(=O)Nc3ccc(Cl)c(C(F)(F)F)c3)cc2)ccn1 | 13 |
| CC(C)(C)c1nnc(NC(=O)Nc2ccc(Oc3ccncc3)cc2)o1 | 6300 |
| CN(c1ccncc1)c1ccc(NC(=O)Nc2cc(C(C)(C)C)on2)cc1 | 3500 |
| CC(C)(C)c1nnc(NC(=O)Nc2ccc(Oc3ccncc3)cc2)s1 | 8600 |
| CNC(=O)Oc1cc(C)c(/C=C/c2cncc(C(=O)NC)c2)c(C)c1 [GW432441X] | 10 |
| Cc1cc(O)cc(C)c1/C=C/c1cncc(C(N)=O)c1 [GW435821X] | 158 |
| CNC(=O)c1cncc(/C=C/c2c(C)cccc2C)c1 [GW445012X] | 250 |
| CNC(=O)c1cncc(/C=C/c2c(Cl)cccc2Cl)c1 [GW445014X] | 251 |
